Laboratory results published in ChEMBL document CHEMBL1135356, “Multidrug resistant cancer cells susceptibility to cytotoxic taxane diterpenes from Taxus yunnanensis and Taxus chinensis” (2002).
Converted amounts (≈) assume the structure as drawn. The source made the active and inactive calls. The calls are words filed in the database; no cut-off is given here.

Experiments:
A549 [1] = assay: Cytotoxic activity of compound against A-549 tumor cell line.; type: functional; conditions: Homo sapiens, read-out: ED50 (the source's name)
HCT-8 [2] = assay: Cytotoxic activity of compound against HCT-8 tumor cell line.; type: functional; conditions: Homo sapiens, read-out: ED50 (the source's name)
HOS [3] = assay: Cytotoxic activity of compound against HOS tumor cell line.; type: functional; conditions: Homo sapiens, read-out: ED50 (the source's name)
[4] = Cytotoxic activity of compound against IA-9 tumor cell line.; type: functional; conditions: Homo sapiens; read-out: ED50 (the source's name)
KB 3-1 [5] = assay: Cytotoxic activity of compound was evaluated against KB-VIN cells expressing (P-glycoprotein).; type: functional; conditions: Homo sapiens, KBVIN; read-out: ED50 (the source's name)
KB 3-1 [6] = assay: Cytotoxic activity of compound was evaluated against KB-VIN cells expressing (P-glycoprotein) at conc. of 20 ug/mL; type: functional; conditions: Homo sapiens, KBVIN
MCF7 [7] = assay: Cytotoxic activity of compound against MCF-7 tumor cell line.; type: functional; conditions: Homo sapiens, read-out: ED50 (the source's name)
SK-MEL-2 [8] = assay: Cytotoxic activity of compound against SK-MEL-2 tumor cell line.; type: functional; conditions: Homo sapiens, read-out: ED50 (the source's name)
U-87 MG [9] = assay: Cytotoxic activity of compound against U-87-MG tumor cell line.; type: functional, U-87MG ATCC; conditions: Homo sapiens, read-out: ED50 (the source's name)
[10] = Cytotoxic activity of compound against KB cell lines.; type: functional; conditions: Homo sapiens, read-out: ED50 (the source's name)
[11] = Cytotoxic activity of compound was evaluated against KB cell line.; type: functional; conditions: Homo sapiens, read-out: ED50 (the source's name)
[12] = Cytotoxic activity of compound was evaluated against drug resistant subline KB-7d cells; type: functional; conditions: Homo sapiens; read-out: ED50 (the source's name)
[13] = Cytotoxic activity of compound was evaluated against KB cell line at conc. of 20 ug/mL; type: functional; conditions: Homo sapiens
KB = assay: Cytotoxic activity of compound was evaluated against KB cell line; NA denotes not active at conc. of 20 ug/mL.; type: functional, cell-based; conditions: Homo sapiens
KB 3-1 [14] = assay: Cytotoxic activity of compound was evaluated against drug resistant subline KB-7d cells at conc. of 20 ug/mL; type: functional; conditions: Homo sapiens
A549 [15] = assay: Cytotoxic activity of compound against A-549 tumor cell line at conc. of 20 ug/mL; type: functional; conditions: Homo sapiens
HCT-8 [16] = assay: Cytotoxic activity of compound against HCT-8 tumor cell line; NA denotes not active at conc. of 20 ug/mL.; type: functional, cell-based; conditions: Homo sapiens
HOS [17] = assay: Cytotoxic activity of compound against HOS tumor cell line at conc. of 20 ug/mL; type: functional; conditions: Homo sapiens
[18] = Cytotoxic activity of compound against IA-9 tumor cell line. at conc. of 20 ug/mL; type: functional; conditions: Homo sapiens
[19] = Cytotoxic activity of compound against KB cell lines at conc. of 20 ug/mL; type: functional; conditions: Homo sapiens
MCF7 [20] = assay: Cytotoxic activity of compound against MCF-7 tumor cell line at conc. of 20 ug/mL; type: functional; conditions: Homo sapiens
SK-MEL-2 [21] = assay: Cytotoxic activity of compound against SK-MEL-2 tumor cell line at conc. of 20 ug/mL; type: functional; conditions: Homo sapiens
U-87 MG [22] = assay: Cytotoxic activity of compound against U-87-MG tumor cell line at conc. of 20 ug/mL; type: functional, U-87MG ATCC; conditions: Homo sapiens
KB 3-1 [23] = assay: Cytotoxic activity of compound was evaluated against KB-VIN cells at conc. of 20 ug/mL; type: functional; conditions: Homo sapiens, KBVIN

Structure (SMILES)	EC50 (KB 3-1 [5])	EC50 [11]	EC50 [12]	further results
COc1ccc(-c2cc(=O)c3c(O)cc(OC)cc3o2)c(-c2c(O)cc(O)c3c(=O)cc(-c4ccc(O)cc4)oc23)c1	> 20 µg/mL	–	–	EC50 (A549 [1]): 5.5 µg/mL (≈ 9.71 µM); EC50 (HCT-8 [2]): 8.5 µg/mL (≈ 15 µM); EC50 (HOS [3]): 8 µg/mL (≈ 14.1 µM); EC50 [4]: 6 µg/mL (≈ 10.6 µM); inhibition at 20 µg/mL (KB 3-1 [6]): 21%; EC50 (MCF7 [7]): 7.5 µg/mL (≈ 13.2 µM); EC50 (SK-MEL-2 [8]): 7 µg/mL (≈ 12.4 µM); EC50 (U-87 MG [9]): 7 µg/mL (≈ 12.4 µM); EC50 [10]: 7.5 µg/mL (≈ 13.2 µM)
C=C1[C@@H](OC(=O)/C=C/c2ccccc2)CC[C@@]2(C)[C@@H](OC(C)=O)[C@H](OC(C)=O)C3=C(C)[C@@H](OC(C)=O)C[C@@H]([C@@H](O)[C@H]12)C3(C)C	11 µg/mL (≈ 18.1 µM)	12.5 µg/mL (≈ 20.5 µM)	9.4 µg/mL (≈ 15.4 µM)	–
C=C1[C@@H](OC(=O)/C=C/c2ccccc2)C[C@H](OC(C)=O)[C@]2(C)[C@@H]1C[C@@H]1C[C@H](OC(C)=O)C(C)=C([C@@H](OC(C)=O)[C@@H]2OC(C)=O)C1(C)C	2.4 µg/mL (≈ 3.69 µM)	4.8 µg/mL (≈ 7.38 µM)	3.5 µg/mL (≈ 5.38 µM)	–
C=C1[C@@H](OC(C)=O)CC[C@@]2(C)C[C@H](OC(C)=O)C3=C(C)C[C@H](OC(=O)[C@@H](C)C(C)O)[C@@H]([C@@H](OC(C)=O)[C@H]12)C3(C)C (some centres undefined)	8.6 µg/mL (≈ 15.3 µM)	9.8 µg/mL (≈ 17.4 µM)	4.3 µg/mL (≈ 7.64 µM)	–
C=C1[C@@H](OC(=O)/C=C/c2ccccc2)C[C@H](OC(C)=O)[C@@]2(CCOC(C)=O)[C@@H](OC(C)=O)[C@H](OC(C)=O)[C@]3(O)[C@@]4(C)CO[C@]3(C)C(=O)C[C@H]4[C@@H](OC(C)=O)[C@H]12	17 µg/mL (≈ 22.1 µM)	6.2 µg/mL (≈ 8.06 µM)	4.6 µg/mL (≈ 5.98 µM)	–
CC(=O)O[C@H]1CC[C@@]2(C)C[C@H](OC(C)=O)C3=C(C)CC(O)[C@@H]([C@@H](OC(C)=O)[C@@H]2C1)C3(C)C (some centres undefined)	17.3 µg/mL (≈ 38.4 µM)	> 20 µg/mL	9.6 µg/mL (≈ 21.3 µM)	inhibition at 20 µg/mL [13]: 45%
CC(=O)O[C@H]1C(=O)[C@@]2(C)C/C(=C\[C@H](OC(C)=O)[C@@H]3C[C@H](OC(C)=O)C(C)=C1C3(C)C)[C@@H](OC(C)=O)C[C@@H]2OC(C)=O	> 20 µg/mL	–	> 20 µg/mL	ED50 (KB): inactive; inhibition at 20 µg/mL (KB 3-1 [14]): 22%; inhibition at 20 µg/mL (KB 3-1 [6]): 5%
C=C1[C@@H](OC(=O)/C=C/c2ccccc2)C[C@H](OC(C)=O)[C@@]2(C)[C@@H](OC(C)=O)[C@H](OC(C)=O)C3=C(C)[C@@H](OC(C)=O)C[C@@H]([C@@H](OC(C)=O)[C@H]12)C3(C)C	16.2 µg/mL (≈ 22.9 µM)	16 µg/mL (≈ 22.6 µM)	14.2 µg/mL (≈ 20 µM)	–
C=C1[C@@H](OC(=O)/C=C/c2ccccc2)C[C@H](OC(C)=O)[C@@]2(C)[C@@H](OC(C)=O)[C@H](OC(C)=O)C3=C(C)C(=O)C[C@@H]([C@@H](OC(C)=O)[C@H]12)C3(C)C	3.6 µg/mL (≈ 5.42 µM)	3.9 µg/mL (≈ 5.87 µM)	4.1 µg/mL (≈ 6.17 µM)	–
C=C1[C@@H](OC(=O)/C=C/c2ccccc2)CC[C@@]2(C)[C@@H](OC(C)=O)[C@H](OC(C)=O)[C@@]34[C@H](C)C(=O)C[C@@H]([C@@H](OC(C)=O)C132)C4(C)C (some centres undefined)	8.7 µg/mL (≈ 14.3 µM)	12.1 µg/mL (≈ 19.9 µM)	7.8 µg/mL (≈ 12.9 µM)	–
CC(=O)OC/C1=C\[C@H](OC(C)=O)[C@]2(C)C[C@H](OC(C)=O)C(C)=C([C@@H](OC(C)=O)/C(OC(C)=O)=C(/C)[C@@H](OC(C)=O)C[C@@H]1OC(=O)/C=C/c1ccccc1)C2(C)C	13.3 µg/mL (≈ 17 µM)	16.6 µg/mL (≈ 21.3 µM)	10 µg/mL (≈ 12.8 µM)	–
C=C1[C@@H](OC(=O)/C=C/c2ccccc2)CC[C@@]2(C)[C@@H](O)[C@H](OC(C)=O)[C@@]34[C@H](C)C(=O)C[C@@H]([C@@H](OC(C)=O)C132)C4(C)C (some centres undefined)	6.4 µg/mL (≈ 11.3 µM)	7.7 µg/mL (≈ 13.6 µM)	6.1 µg/mL (≈ 10.8 µM)	–
COc1ccc(-c2cc(=O)c3c(O)cc(O)c(-c4cc(OC)ccc4-c4cc(=O)c5c(O)cc(OC)cc5o4)c3o2)cc1	> 20 µg/mL	–	–	EC50 (A549 [1]): > 20 µg/mL; inhibition at 20 µg/mL (A549 [15]): 58%; inhibition (HCT-8 [16]): inactive; EC50 (HOS [3]): > 20 µg/mL; inhibition at 20 µg/mL (HOS [17]): 25%; EC50 [4]: > 20 µg/mL; inhibition at 20 µg/mL [18]: 44%; inhibition at 20 µg/mL [19]: 12%; inhibition at 20 µg/mL (KB 3-1 [6]): 9%; EC50 (MCF7 [7]): > 20 µg/mL; inhibition at 20 µg/mL (MCF7 [20]): 22%; EC50 (SK-MEL-2 [8]): > 20 µg/mL; inhibition at 20 µg/mL (SK-MEL-2 [21]): 9%; inhibition at 20 µg/mL (U-87 MG [22]): 17%; EC50 (U-87 MG [9]): > 20 µg/mL; EC50 [10]: > 20 µg/mL
CC(=O)O[C@H]1C[C@H]2[C@@H](OC(C)=O)/C=C3\C[C@@](C)([C@@H](OC(C)=O)C[C@@H]3OC(C)=O)[C@@H](O)C(=O)C(=C1C)C2(C)C	> 21 µg/mL	> 20 µg/mL	> 28 µg/mL	inhibition at 20 µg/mL [13]: 10%; inhibition at 20 µg/mL (KB 3-1 [14]): 28%; inhibition at 20 µg/mL (KB 3-1 [23]): 21%
